The values that follow come from US4803209A, “Substituted 2,3-diphenyl-1,2-dihydroquinoxalines” (International Minerals & Chemical Corp., priority 1987, dated 1989).

Usually inhibition stands for the share of the control response that was lost under treatment.

Read-outs that look alike come from different tables or passages of the source. Where a SMILES comes first, the peptide text is derived from it. Bridges are numbered along the chain shown (N, C = ends). [ ]: non-standard residue; d: D form. The star is where a group is joined. Ileψ(thiazoline)Cys = CC[C@H](C)[C@H](N)C1=N[C@H](C(=O)*)CS1; dOrn = NCCC[C@@H](N)C(=O)O

In one experiment the test system is Salmonella typhimurium. Type of experiment: cell-based.
The subject of experiment [1] is antibiotic resistant E. coli (E.C. 324). Type of experiment: cell-based. Particulars: Gram Neg., 6 h, 37° C., aerobic.
The subject of experiment [2] is E. coli strain 046 (E.C. 046). It is filed as cell-based.
Experiment [3] has as its system Streptococcus sp. 1 X C15 (Strep C15). It is filed as cell-based.
Experiment [4] relates to Streptococcus sp. 1 X A7 (Strep A7). It is filed as cell-based.
Experiment [5] has as its system Clostridium perfringens (Cp). Type of experiment: cell-based. Particulars: Anaerobic, 6 h, 37° C.
The subject of experiment [6] is Bacteroides fragilis (Bf). The experiment in a line: Antimicrobial growth inhibition, Bf. It is filed as cell-based. Particulars: Anaerobic, 6 h, 37° C.
Experiment [7] in a line: Growth promotion and feed utilization in chicks. Type of experiment: in vivo, chicks (broiler cockerels). The settings on record: 8 weeks.
Experiment [8] relates to Eimeria tenella Eli Lilly Strain 65 (Lilly 65). Briefly: In vitro anticoccidial test in chick kidney cell monolayers. It is filed as cell-based. The settings on record: 72 h, 3 days, read-out: % Inhibition of Coccidia.
Where [9] appears, read: experiment set 1, 75 ppm in feed.
The mark [10] stands for this setting: experiment set 2, 50 ppm in feed.
[11] abbreviates: experiment set 4, 50 ppm in feed.

In the case of `CC[C@H](C)[C@H](N)C1=N[C@H](C(=O)N[C@@H](CC(C)C)C(=O)N[C@H](CCC(=O)O)C(=O)N[C@H](C(=O)N[C@H]2CCCCNC(=O)[C@H](CC(N)=O)NC(=O)[C@@H](CC(=O)O)NC(=O)[C@H](Cc3cnc[nH]3)NC(=O)[C@@H](Cc3ccccc3)NC(=O)[C@H]([C@@H](C)CC)NC(=O)[C@@H](CCCN)NC2=O)[C@@H](C)CC)CS1` [Bacitracin] ({Ileψ(thiazoline)Cys}-L[dE]IK[dOrn]I[dF]H[dD]N; lactam 4-C), the “Growth of S.T. in the presence of the test compound” value in the experiment on Salmonella typhimurium (6.4 ppm) and in the experiment on Salmonella typhimurium (64 ppm) was “+” in each case. Also, the “Growth of E.C. 324 in the presence of the test compound” value in experiment [1] (6.4 ppm) and in experiment [1] (64 ppm) was “+” in each case. Also, the “Growth of E.C. 046 in the presence of the test compound” value in [2] (6.4 ppm) and in experiment [2] (64 ppm) was “+” each time. Besides, the “Growth of Strep C15 in the presence of the test compound” value (“Growth of Strep C15” below) in [3] (6.4 ppm) and in experiment [3] (64 ppm) was “-” in each case. Besides, the “Growth of Strep A7 in the presence of the test compound” value (“Growth of Strep A7” for short) in experiment [4] (6.4 ppm) and in [4] (64 ppm) was “-” throughout. Moreover, the “Growth of Cp in the presence of the test compound” value (“Growth of Cp” for short) is reported as “+” in experiment [5] (6.4 ppm) and “-” in experiment [5] (64 ppm). Further, the “Growth of Bf in the presence of the test compound” value (shortened to “Growth of Bf”) in experiment [6] (6.4 ppm) and in [6] (64 ppm) was “-” in each case. In addition, the “feed efficiency (% better or worse than control)” value in experiment [7] (setting [9]) came out at 19%; in experiment [7] (setting [10]), 32%. Besides, the “weight gain (% better or worse than control)” value in experiment [7] (setting [9]) turned out to be 25%; in experiment [7] (setting [10]), 40%.
As for `CN(C)[C@@H]1C(O)=C(C(N)=O)C(=O)[C@@]2(O)C(O)=C3C(=O)c4c(O)ccc(Cl)c4[C@@](C)(O)[C@H]3C[C@@H]12` [Chlortetracycline], the “Growth of S.T. in the presence of the test compound” value in the experiment on Salmonella typhimurium (6.4 ppm) and in the experiment on Salmonella typhimurium (64 ppm) was “-” in each case. Besides, the figures for the “Growth of E.C. 324 in the presence of the test compound” value in experiment [1] (6.4 ppm) and in [1] (64 ppm) were “+” and “-”, respectively. Further, the “Growth of E.C. 046 in the presence of the test compound” value is listed as “+” in experiment [2] (6.4 ppm) and “-” in [2] (64 ppm). In addition, the “Growth of Strep C15” value in [3] (6.4 ppm) and in [3] (64 ppm) was “-” throughout. Further, the “Growth of Strep A7” value in experiment [4] (6.4 ppm) and in experiment [4] (64 ppm) was “-” throughout. The “Growth of Cp” value in experiment [5] (6.4 ppm) and in [5] (64 ppm) was “+” each time. Besides, the “Growth of Bf” value in [6] (6.4 ppm) was “+”; in experiment [6] (64 ppm), “-”.
With Polymyxin, the “Growth of S.T. in the presence of the test compound” value in the experiment with Salmonella typhimurium (6.4 ppm) and in the experiment on Salmonella typhimurium (64 ppm) was “-” each time. For the same compound, the “Growth of E.C. 324 in the presence of the test compound” value in experiment [1] (6.4 ppm) and in [1] (64 ppm) was “-” each time. The “Growth of E.C. 046 in the presence of the test compound” value in experiment [2] (6.4 ppm) and in experiment [2] (64 ppm) was “-” in each case. Further, the “Growth of Strep C15” value in [3] (6.4 ppm) and in experiment [3] (64 ppm) was “-” each time. For the same compound, the “Growth of Strep A7” value is given as “+” in experiment [4] (6.4 ppm) and “-” in experiment [4] (64 ppm). Further, the “Growth of Cp” value in experiment [5] (6.4 ppm) and in experiment [5] (64 ppm) was “+” in each case. The entries for the “Growth of Bf” value in experiment [6] (6.4 ppm) and in [6] (64 ppm) were “+” and “-”, respectively. For the same compound, the “feed efficiency (% better or worse than control)” value in experiment [7] (setting [11]) worked out at 6%. Further, the “weight gain (% better or worse than control)” value in experiment [7] (setting [11]) is recorded as -3%.
`CC[C@H]1OC(=O)[C@H](C)[C@@H](O[C@H]2C[C@@](C)(OC)[C@@H](O)[C@H](C)O2)[C@H](C)[C@@H](O[C@@H]2O[C@H](C)C[C@H](N(C)C)[C@H]2O)[C@](C)(O)C[C@@H](C)C(=O)[C@H](C)[C@@H](O)[C@]1(C)O` [Erythromycin]: the “Growth of S.T. in the presence of the test compound” value with Salmonella typhimurium (6.4 ppm) is “+”; with Salmonella typhimurium (64 ppm) it was “-”. The “Growth of E.C. 324 in the presence of the test compound” value in experiment [1] (6.4 ppm) and in experiment [1] (64 ppm) was “+” throughout. The “Growth of E.C. 046 in the presence of the test compound” value is on record as “+” in experiment [2] (6.4 ppm) and “-” in experiment [2] (64 ppm). Moreover, the “Growth of Strep C15” value in experiment [3] (6.4 ppm) and in experiment [3] (64 ppm) was “-” each time. In addition, the “Growth of Strep A7” value in [4] (6.4 ppm) and in [4] (64 ppm) was “-” throughout. Besides, the “Growth of Cp” value in experiment [5] (6.4 ppm) and in experiment [5] (64 ppm) was “+” throughout. Further, the “Growth of Bf” value in experiment [6] (6.4 ppm) is recorded as “+”; in [6] (64 ppm), “-”.
`Clc1ccc(C2=Nc3cc(Cl)c(Cl)cc3NC2c2ccc(Cl)cc2Cl)c(Cl)c1` (centres unmarked) [Example 3, 2,3-di(2,4-dichlorophenyl)-6,7-dichloro-1,2-dihydroquinoxaline]: in experiment [8], the inhibition at 0.1 ppm worked out at 88.6% and the inhibition at 10 ppm was 98%.
`CC[C@H]1OC(=O)C[C@@H](O)[C@H](C)[C@@H](O[C@@H]2O[C@H](C)[C@@H](O[C@H]3C[C@@](C)(O)[C@@H](O)[C@H](C)O3)[C@H](N(C)C)[C@H]2O)[C@@H](CC=O)C[C@@H](C)C(=O)/C=C/C(C)=C/[C@@H]1CO[C@@H]1O[C@H](C)[C@@H](O)[C@@H](OC)[C@H]1OC` [Tylosin]: the “Growth of S.T. in the presence of the test compound” value with Salmonella typhimurium (6.4 ppm) and with Salmonella typhimurium (64 ppm) was “+” each time. Further, the “Growth of E.C. 324 in the presence of the test compound” value in [1] (6.4 ppm) and in experiment [1] (64 ppm) was “+” throughout. In addition, the “Growth of E.C. 046 in the presence of the test compound” value in [2] (6.4 ppm) and in experiment [2] (64 ppm) was “+” throughout. The “Growth of Strep C15” value in [3] (6.4 ppm) and in experiment [3] (64 ppm) was “-” throughout. In addition, the “Growth of Strep A7” value in experiment [4] (6.4 ppm) and in experiment [4] (64 ppm) was “-” in each case. Also, the “Growth of Cp” value in [5] (6.4 ppm) is reported as “+”; in experiment [5] (64 ppm) it was “-”. In addition, the “Growth of Bf” value in [6] (6.4 ppm) and in experiment [6] (64 ppm) was “-” in each case.
For the compound `Clc1ccc(C2=Nc3ccccc3NC2c2ccc(Cl)cc2Cl)c(Cl)c1` (centres unmarked) [Example 6, 2,3-di(2,4-dichlorophenyl)-1,2-dihydroquinoxaline], in experiment [8], the inhibition at 0.1 ppm stood at 60% and the inhibition at 10 ppm was 100%.
